Source: US4725578A, “Compounds having therapeutic effect and the preparation thereof” (Tobishi Pharmaceutical Co., Ltd., priority 1986, dated 1988)

Tested on: P-388 cells
Assay: Antineoplastic action against implanted P-388 cells (ip-ip), survival T/C
Format: in vivo, CDFl mice
Details: for T/C % (Treatment/Control %): Table 6, P388, intraperitoneal
Protocol: To the peritoneal cavity of each group of mice consisting of six CDFl mice per group, 10^6 /0.1 ml of P-388 cells or 10^5 /0.1 ml of L-1210 cells were implanted. […]
In the Table, the symbol T/C % means Treatment/Control %, that is the increase in life when the control is 100. […] This method is used in the screening of U.S. National Cancer Institute.
In Table 7, the symbol "i.P.-i.P." means that the tumor cells are implanted intraperitoneally and the compounds being tested are also administered intraperitoneally. The symbol "TR" is the therapeutic ratio obtained by dividing the dose which provides a maximum T/C value, by the dose which provides a minimum T/C value.

Row | SMILES | T/C % (Treatment/Control %) (dose 0.05 mg/kg) | T/C % (Treatment/Control %) (dose 0.5 mg/kg) | T/C % (Treatment/Control %) (dose 2 mg/kg) | T/C % (Treatment/Control %) (dose 4 mg/kg) | T/C (additional tests, P 388 (ip-ip), 0.5 mg/kg × 5, single agent) | T/C % (Treatment/Control %) (dose 10 mg/kg)
1 | CCCCCCCCOc1ccc2cc1Oc1ccc(cc1)CC1C(=O)N(C)C(C2)C(=O)NC(C)C(=O)NC(C)C(=O)N(C)C(Cc2ccc(OC)cc2)C(=O)NC(C)C(=O)N1C (stereo not shown) [Ex. 9] | 136.1% | 146.8% | 162.9% | 152.2% |  | 
2 | CCC=CCC(=O)Oc1ccc2cc1Oc1ccc(cc1)CC1C(=O)N(C)C(C2)C(=O)NC(C)C(=O)NC(C)C(=O)N(C)C(Cc2ccc(OC)cc2)C(=O)NC(C)C(=O)N1C (stereo not shown) [Ex. 45] | 121.7% | 145.0% | 162.3% |  |  | 
3 | CO[C@@]12[C@H](COC(N)=O)C3=C(C(=O)C(C)=C(N)C3=O)N1C[C@@H]1N[C@@H]12 [Mitomycin, reference compound] |  |  |  |  | 198.2% | 
4 | COc1ccc(CC2C(=O)NC(C)C(=O)N(C)C3Cc4ccc(cc4)Oc4cc(ccc4OC(=O)C(C)C)CC(C(=O)NC(C)C(=O)NC(C)C(=O)N2C)N(C)C3=O)cc1 (stereo not shown) [Ex. 25] | 124.1% | 150.7% | 155.9% |  |  | 183.5%
5 | CCCCCCCOc1ccc2cc1Oc1ccc(cc1)CC1C(=O)N(C)C(C2)C(=O)NC(C)C(=O)NC(C)C(=O)N(C)C(Cc2ccc(OC)cc2)C(=O)NC(C)C(=O)N1C (stereo not shown) [Ex. 8] | 115.8% | 144.7% | 150.1% | 164.0% |  | 
6 | CCOc1ccc2cc1Oc1ccc(cc1)CC1C(=O)N(C)C(C2)C(=O)NC(C)C(=O)NC(C)C(=O)N(C)C(Cc2ccc(OC)cc2)C(=O)NC(C)C(=O)N1C (stereo not shown) [Ex. 3] | 137.3% | 165.4% | 162.2% |  |  | 
7 | CCCC=CC(=O)Oc1ccc2cc1Oc1ccc(cc1)CC1C(=O)N(C)C(C2)C(=O)NC(C)C(=O)NC(C)C(=O)N(C)C(Cc2ccc(OC)cc2)C(=O)NC(C)C(=O)N1C (stereo not shown) [Ex. 44] | 116.6% | 150.1% | 165.3% |  |  | 
8 | COc1ccc(CC2C(=O)NC(C)C(=O)N(C)C3Cc4ccc(cc4)Oc4cc(ccc4OC4CCCCO4)CC(C(=O)NC(C)C(=O)NC(C)C(=O)N2C)N(C)C3=O)cc1 (stereo not shown) [Ex. 20, tetrahydropyranylether of TPC-A] | 138.4% | 164.3% | 121.1% |  |  | 
9 | CCOC(=O)CCCOc1ccc2cc1Oc1ccc(cc1)CC1C(=O)N(C)C(C2)C(=O)NC(C)C(=O)NC(C)C(=O)N(C)C(Cc2ccc(OC)cc2)C(=O)NC(C)C(=O)N1C (stereo not shown) [Ex. 19(2), ethoxycarbonylpropylether (2) of TPC-A] | 113.8% | 139.6% | 141.7% | 153.1% |  | 
10 | COc1ccc(CC2C(=O)NC(C)C(=O)N(C)C3Cc4ccc(cc4)Oc4cc(ccc4OC(C)C)CC(C(=O)NC(C)C(=O)NC(C)C(=O)N2C)N(C)C3=O)cc1 (stereo not shown) [Ex. 5] | 142.4% | 175.1% | 105.4% |  |  | 
11 | CCCCCCCCCOc1ccc2cc1Oc1ccc(cc1)CC1C(=O)N(C)C(C2)C(=O)NC(C)C(=O)NC(C)C(=O)N(C)C(Cc2ccc(OC)cc2)C(=O)NC(C)C(=O)N1C (stereo not shown) [Ex. 10] | 112.5% | 141.5% | 150.1% | 155.4% |  | 
12 | CCCC(=O)Oc1ccc2cc1Oc1ccc(cc1)CC1C(=O)N(C)C(C2)C(=O)NC(C)C(=O)NC(C)C(=O)N(C)C(Cc2ccc(OC)cc2)C(=O)NC(C)C(=O)N1C (stereo not shown) [Ex. 24] | 125.1% | 144.2% | 155.9% |  |  | 170.0%
13 | CCCC(C)C(=O)Oc1ccc2cc1Oc1ccc(cc1)CC1C(=O)N(C)C(C2)C(=O)NC(C)C(=O)NC(C)C(=O)N(C)C(Cc2ccc(OC)cc2)C(=O)NC(C)C(=O)N1C (stereo not shown) [Ex. 43] | 116.6% | 142.0% | 154.2% |  |  | 
14 | COc1ccc(CC2C(=O)NC(C)C(=O)N(C)C3Cc4ccc(cc4)Oc4cc(ccc4OC(=O)CCC(C)C)CC(C(=O)NC(C)C(=O)NC(C)C(=O)N2C)N(C)C3=O)cc1 (stereo not shown) [Ex. 40, 4-methyl valerate] | 111.6% | 133.9% | 152.1% |  |  | 
15 | CCC(C)CC(=O)Oc1ccc2cc1Oc1ccc(cc1)CC1C(=O)N(C)C(C2)C(=O)NC(C)C(=O)NC(C)C(=O)N(C)C(Cc2ccc(OC)cc2)C(=O)NC(C)C(=O)N1C (stereo not shown) [Ex. 42] | 114.6% | 140.0% | 159.2% |  |  | 
16 | CCC(=O)Oc1ccc2cc1Oc1ccc(cc1)CC1C(=O)N(C)C(C2)C(=O)NC(C)C(=O)NC(C)C(=O)N(C)C(Cc2ccc(OC)cc2)C(=O)NC(C)C(=O)N1C (stereo not shown) [Ex. 23] | 129.0% | 145.3% | 164.4% |  |  | 175.0%
17 | CC=CC(=O)Oc1ccc2cc1Oc1ccc(cc1)CC1C(=O)N(C)C(C2)C(=O)NC(C)C(=O)NC(C)C(=O)N(C)C(Cc2ccc(OC)cc2)C(=O)NC(C)C(=O)N1C (stereo not shown) [Ex. 26] | 124.1% | 148.5% | 162.3% |  |  | 186.6%
18 | CCCCCOc1ccc2cc1Oc1ccc(cc1)CC1C(=O)N(C)C(C2)C(=O)NC(C)C(=O)NC(C)C(=O)N(C)C(Cc2ccc(OC)cc2)C(=O)NC(C)C(=O)N1C (stereo not shown) [Ex. 7] | 122.2% | 142.7% | 165.4% |  |  | 
19 | CCCCC(=O)Oc1ccc2cc1Oc1ccc(cc1)CC1C(=O)N(C)C(C2)C(=O)NC(C)C(=O)NC(C)C(=O)N(C)C(Cc2ccc(OC)cc2)C(=O)NC(C)C(=O)N1C (stereo not shown) [Ex. 27] | 117.9% | 149.5% | 157.9% |  |  | 171.6%
